Cytotoxicity data for 96 molecules are collected here from ChEMBL document CHEMBL3507680, “University of Dundee, Gates Library screen for HepG2 cell viability”.

The data set in a line: Human HepG2 cell viability assay in 384 well format. As to conditions: HepG2 cells, read-out: Inhibition. Further details: dose 125 nL, time 70.5 hour; concentration not given beside the values. It counts as toxicity, cell-based.

On to `Cc1ccc(-c2noc(C3CCN3C(=O)c3c(C)noc3C)n2)s1` (stereo unspecified), for which the cytotoxicity at 70.5 h was -3.14%.
As for `CC(=O)N1CCC(C(=O)N2CCC2c2nc(-c3ccc(C)s3)no2)CC1` (stereo unspecified), the figure is 9.04%; as for `Cc1noc(C)c1C(=O)N1CCC(c2cc3cnccc3[nH]2)CC1`, -5.78%; as for `c1nc(N2CCCC2)cnc1C1CCNCC1`, -6.46%.
For `NC(=O)c1cccc(-c2cnc(C3CCCNC3)cn2)c1` (stereo unspecified), the cytotoxicity at 70.5 h is -7.33%.
Take `Cc1cc(N2CCOC(c3ccccn3)C2)nc(N)n1` (stereo unspecified): the cytotoxicity at 70.5 h is -3.03%.
In the case of `Cn1ccnc1-c1nc(N2CCCCC2)ncc1-c1ccccc1F`, the cytotoxicity at 70.5 h is -7.17%.
On to `NC(=O)C1(Cc2ccccc2-c2cncnc2)CCCNC1` (stereo unspecified), for which the cytotoxicity at 70.5 h was -10.3%.
`CC(CN1CCOCC1)n1cncc1-c1cnn(Cc2ccccc2)c1` (stereo unspecified): the cytotoxicity at 70.5 h is -2.84%.
In the case of `COc1ccc(S(=O)(=O)N2CCOC(C)(C(N)=O)C2)cc1` (stereo unspecified), the cytotoxicity at 70.5 h was -3.24%.
Turning to `O=C1CN([C@@H]2CC[C@@H](NS(=O)(=O)c3ccccc3)[C@H]2O)CCN1`, the cytotoxicity at 70.5 h was -2.13%.
As to `Cc1nccn1[C@@H]1CC[C@@H](N(C)S(=O)(=O)c2cccc(F)c2)[C@H]1O`, the cytotoxicity at 70.5 h was -0.727%.
Turning to `CN(C)c1ccc(C(=O)N2CCC(c3cc4ncccc4[nH]3)CC2)cc1`, the cytotoxicity at 70.5 h is -1.4%.
Regarding `O=C(Cc1ccsc1)N1CCC[C@@H]1Cn1c(=O)oc2ccccc21`, the cytotoxicity at 70.5 h is -5.78%.
On to `O=C(c1c(F)cccc1F)N1CCC[C@@H]1Cn1c(=O)oc2ccccc21`, for which the cytotoxicity at 70.5 h is -0.473%.
In the case of `Cc1nc(N)cc(C2(C)CCCNC2)n1` (stereo unspecified), the cytotoxicity at 70.5 h was -5.33%.
Take `c1cn(-c2nccnc2C2CCCN(C3CCOCC3)C2)cn1` (stereo unspecified): the cytotoxicity at 70.5 h is -5.56%.
Turning to `CC(=O)N1CCC(c2ncc(C(=O)Nc3ccccc3)c(C)n2)CC1`, the cytotoxicity at 70.5 h is -4.36%.
In the case of `Cn1ccc(C(=O)N2CCCC2c2cc(CCO)[nH]n2)n1` (stereo unspecified), the cytotoxicity at 70.5 h is -1.26%.
Regarding `CCN(CC)S(=O)(=O)N1CCCC(c2ncc3c(n2)CCN(C)C3)C1` (stereo unspecified), the cytotoxicity at 70.5 h was determined as 23.8%.
`Fc1cccc(CN2CCC[C@H](Cn3nnc(-c4ccccn4)n3)C2)c1`: the cytotoxicity at 70.5 h was -4.05%.
As for `Fc1cccc(CN2CCC[C@@H](Cn3nnc(-c4ccccn4)n3)C2)c1`, the figure is -5.77%; as for `Fc1ccccc1CN1CCC[C@@H](Cn2nnc(-c3cccs3)n2)C1`, -3.35%.
Regarding `CC(NC(=O)C1CCCCC1)c1cc(O)nc(-c2cccnc2)n1` (stereo unspecified), the cytotoxicity at 70.5 h is -4.35%.
For `CC(C)C(NC(=O)C1CC1)c1cc(O)nc(-c2cccnc2)n1` (stereo unspecified), the cytotoxicity at 70.5 h was -0.322%.
As for `COc1ccc(-c2cc(C3CCCCCN3S(C)(=O)=O)on2)cc1` (stereo unspecified), the cytotoxicity at 70.5 h is -2.6%.
Turning to `C=Cn1cc(CN2CCC(c3ncc(Cl)cc3S(C)(=O)=O)CC2)c(C)n1`, the cytotoxicity at 70.5 h is -3.31%.
Turning to `CCn1cc(CN2CCC(c3ncc(Cl)cc3S(C)(=O)=O)CC2)c(C)n1`, the cytotoxicity at 70.5 h came out at 0.165%.
In the case of `C=Cn1ncc(CN2CCC(c3ncc(Cl)cc3S(C)(=O)=O)CC2)c1C` it was 10%; in that of `CC(C)(C)c1ccc(C(=O)NCCCNC(=O)c2cnccn2)cc1`, -3.26%.
In the case of `COc1ccc(-c2cc3nc(CCNC(=O)C4CC4)nn3cn2)cc1` it was 16.8%; in that of `COCC(=O)NCCc1nc2cc(-c3ccc(OC)cc3)ncn2n1`, -5.33%.
In the case of `COc1ccc(-c2cc3nc(CCNC(=O)CN(C)C)nn3cn2)cc1` it was -1.8%; in that of `CN(C)S(=O)(=O)N1CCCCCC1c1cc(-c2ccc(F)cc2)no1` (stereo unspecified), 1.28%; in that of `O=C(NC1CC1)[C@H]1CN(Cc2ccccc2)C[C@@H]1C(=O)c1ccccc1`, -3.57%.
As for `CNC(=O)[C@@H]1CN(Cc2ccccc2)C[C@H]1C(=O)c1ccc(F)cc1`, the cytotoxicity at 70.5 h was -1.84%.
As for `O=C(c1ccccc1F)N1CCCC1Cn1c(=O)oc2ccccc21` (stereo unspecified), the figure is -0.201%; as for `Cc1nn(CCC(=O)NC2CCCOC2)c(C)c1C` (stereo unspecified), -1.37%.
With `CN(CCc1ccncc1)Cc1c(C2CCCC2)[nH]c2ncccc12`, the cytotoxicity at 70.5 h is -1.56%.
As for `CC(=O)N1CCCC1CCc1ccc(Cl)nn1` (stereo unspecified), the figure is -2.45%; as for `Cc1ccncc1CN1CCOCC1c1[nH]ncc1C` (stereo unspecified), -1.54%.
As for `Cc1cn[nH]c1C1COCCN1Cc1c[nH]cn1` (stereo unspecified), the figure is 4.32%.
For the molecule `CC1(c2nccs2)CCN(C(=O)CCN2CCOCC2)CC1`, the cytotoxicity at 70.5 h was -1.94%.
For the molecule `CN1CCN(CC2(O)CCCN(S(=O)(=O)c3cn[nH]c3)CC2)CC1` (stereo unspecified), the cytotoxicity at 70.5 h is -3.77%.
Regarding `CN1CCCC1CCNC(=O)c1ccccc1-n1cc(CN)cn1` (stereo unspecified), the cytotoxicity at 70.5 h came to 1.23%.
Take `CN(C)Cc1cccc(-c2cccnc2C(=O)NCc2ccco2)c1`: the cytotoxicity at 70.5 h is -4.14%.
In the case of `O=C(Cc1ccc(Cl)cc1)N[C@@H]1CCC[C@@H](O)[C@@H]1O` it was -0.327%.
As for `O=C(CCn1ccnc1)N1CC[C@H](Oc2ccc(F)cc2)[C@@H](O)CC1`, the figure is 0.282%.
For `CC(C)(C(=O)N[C@@H]1CCC[C@@H](O)[C@@H]1O)c1cccc(F)c1`, the cytotoxicity at 70.5 h is -4.01%.
Consider `Cc1cc(C)c2cc(CNCCCN3CCOCC3)c(=O)[nH]c2c1`, for which the cytotoxicity at 70.5 h was -7.01%.
In the case of `O=c1[nH]c2ccccc2cc1CNCCCN1CCOCC1` it was -1.38%; in that of `O=C1NCC2(CCCN(Cc3ccncc3)C2)Oc2ccccc21` (stereo unspecified), -8.47%; in that of `Cc1csc(C(Cc2ccsc2)NC(=O)C2CCN(S(C)(=O)=O)CC2)n1` (stereo unspecified), -10%.
With `Cc1nc2cc(C3CCN(Cc4ccccc4F)C3)nn2c(O)c1C` (stereo unspecified), the cytotoxicity at 70.5 h was -3.81%.
`CCS(=O)(=O)N1CCC(C(=O)NC(Cc2ccsc2)c2nccs2)CC1` (stereo unspecified): the cytotoxicity at 70.5 h stood at 18.9%.
In the case of `CCc1ncc(CN2CCc3nc4sc(C)cc4c(=O)n3CC2)cn1` it was 17.6%; in that of `O=C(Cn1cccnc1=O)NC(Cc1ccsc1)c1nccs1` (stereo unspecified), 17.6%.
`Cc1nc(C2CCN(C(=O)c3ccn(C)n3)CC2)c2sccn12`: the cytotoxicity at 70.5 h is -5.98%.
For the molecule `Cc1nc(C2CCN(C(=O)c3ccnn3C)CC2)c2sccn12`, the cytotoxicity at 70.5 h is -3.95%.
As for `COc1ncc(C(=O)N2CCC(c3nc(C)n4ccsc34)CC2)cn1`, the figure is 24.2%.
As to `CS(=O)(=O)c1snnc1C1CCN(Cc2ccc3nccnc3c2)CC1`, the cytotoxicity at 70.5 h was -5.73%.
For `Cc1cc(C)c2cc(CNCc3ccc(C)o3)c3nn(C)c(=O)n3c2c1`, the cytotoxicity at 70.5 h was -5.87%.
`Cc1ccc2cc(CNCCN3CCCC3)c(=O)[nH]c2c1`: the cytotoxicity at 70.5 h was -0.158%.
As for `CCCn1ncc(CN2C[C@@H]3CCCN3C[C@H]2Cc2ccccc2)c1C`, the figure is 23.6%.
With `C=Cn1ncc(CN2C[C@@H]3C[C@@H](O)CN3C[C@@H]2Cc2ccccc2)c1C`, the cytotoxicity at 70.5 h is 1.04%.
`CNc1cccc(C2CCCN(C(=O)c3cccnc3)C2)n1` (stereo unspecified): the cytotoxicity at 70.5 h came out at 20.4%.
On to `COc1cc(CN2CCC3(CC(Nc4ccncn4)C3)C2)cc(OC)c1` (stereo unspecified), for which the cytotoxicity at 70.5 h was found to be 0.186%.
Turning to `CN(C)Cc1ccnc(C2CCCN2Cc2ccc3ncccc3c2)n1` (stereo unspecified), the cytotoxicity at 70.5 h was 1.4%.
Take `Cc1cccnc1CN1CCC2(CC(Nc3ccncn3)C2)C1` (stereo unspecified): the cytotoxicity at 70.5 h was 1.25%.
For the molecule `COc1cccc(CN2CCC3(CC(Nc4ccncn4)C3)C2)c1F` (stereo unspecified), the cytotoxicity at 70.5 h came to 2.19%.
Consider `CC(C)N1CCC(Cc2cncc(-c3cc(F)ccc3C(=O)O)n2)CC1`, for which the cytotoxicity at 70.5 h is 0.0602%.
`Cc1ccccc1-c1cncc(C2CCN(CC(=O)N(C)C)CC2)n1`: the cytotoxicity at 70.5 h was -3.4%.
With `C=Cn1ncc(CN2C[C@@H]3CCCN3C[C@H]2Cc2ccccc2)c1C`, the cytotoxicity at 70.5 h is 14.6%.
Consider `O=C(N[C@@H]1CCC[C@@H](n2ccnc2)[C@@H]1O)c1ccc2c(c1)CCCC2`, for which the cytotoxicity at 70.5 h was 30.9%.
As for `Nc1nc2nc(C3CCN(C(=O)c4cscn4)C3)ccc2s1` (stereo unspecified), the figure is -5.85%; as for `Cn1ccc(C(=O)N2CCC(Cc3cnc4[nH]ccc4c3)C2)n1` (stereo unspecified), -7.96%; as for `CNC(=O)c1cccc(C2CNCCN2C(=O)C2CCNCC2)c1` (stereo unspecified), -5.44%.
Consider `CCc1cc(O)nc(C2CCCN2C(=O)c2cc(CC)on2)n1` (stereo unspecified), for which the cytotoxicity at 70.5 h is -5.67%.
In the case of `Cc1cc(C)nc(Nc2cccc(C3CCCN(CCO)C3)n2)n1` (stereo unspecified), the cytotoxicity at 70.5 h was -4.13%.
As for `Cc1n[nH]c(C)c1NC(=O)CCc1cccc(C2CCCN(C)C2)n1` (stereo unspecified), the figure is -3.99%; as for `Cc1cccc(C2CCCN(C(=O)c3ccncc3)C2)n1` (stereo unspecified), -7.3%.
With `COCC(=O)N1CCOC(c2ccc(N(C)C)cn2)C1` (stereo unspecified), the cytotoxicity at 70.5 h was found to be 15.3%.
`Cc1nc(C)c(C(=O)Nc2cnn(CC(=O)NC3CCCC3)c2)s1`: the cytotoxicity at 70.5 h turned out to be 14.1%.
Turning to `Cn1ccc(C(=O)N2CCCC(Cc3cccc4cccnc34)C2)n1` (stereo unspecified), the cytotoxicity at 70.5 h worked out at 11.6%.
On to `COc1cccc(C(=O)NC(c2ccccn2)[C@H]2CC[C@H](CN)CC2)c1` (stereo partly specified), for which the cytotoxicity at 70.5 h is -8.19%.
For `CNc1cc(CNC(=O)c2ccccc2OC)nc(-c2ccncc2)n1`, the cytotoxicity at 70.5 h was determined as 12.5%.
On to `CNc1ccc(CC2CCCN(C(=O)c3cnccn3)C2)nn1` (stereo unspecified), for which the cytotoxicity at 70.5 h is -14.4%.
As for `CNc1ccc(CC2CCCN(C(=O)c3c(C)noc3C)C2)nn1` (stereo unspecified), the figure is -13.8%; as for `COc1ccc(F)cc1-c1ccccc1CC1CNCCNC1=O` (stereo unspecified), 2.28%; as for `Cn1nc(C2CCCN(Cc3cc(F)cc(F)c3)C2)c2nccnc21` (stereo unspecified), -1.82%.
As for `Cc1ccc(CN2Cc3ccccc3O[C@]3(CC[C@H](CO)CC3)C2)o1`, the cytotoxicity at 70.5 h is 52%.
Consider `CCC(C)S(=O)(=O)N1CCc2nc(C3CCNCC3)ncc2C1` (stereo unspecified), for which the cytotoxicity at 70.5 h was -0.105%.
`Cc1cc(C)c2[nH]c(C)c(CC(=O)N(C)CCN(C)C)c2c1`: the cytotoxicity at 70.5 h is 1.29%.
For the molecule `COc1ccc(CN(C)[C@@H]2COC[C@H]2c2ccc(F)cc2)c(OC)c1`, the cytotoxicity at 70.5 h stood at 0.309%.
For the molecule `c1cnc2[nH]nc(C3CCN(Cc4ccsc4)CC3)c2c1`, the cytotoxicity at 70.5 h is -4.44%.
Regarding `Fc1ccc(F)c(CN2CCC(c3n[nH]c4ncccc34)CC2)c1`, the cytotoxicity at 70.5 h was -7.24%.
